How the values were obtained:
[1] = target: Human immunodeficiency virus type 1 protease (Human immunodeficiency virus 1, UniProt Q72874); test: Inhibition of HIV-1 protease expressed in Escherichia coli using Arg-Glu(EDANS)-Ser-Gln-Asn-Tyr-Pro-Ile-Val-Gln-Lys(DABCYL)-Arg as substrate preincubated for 20 to 30 mins followed by substrate addition by FRET based assay
[2] = tested on: Human immunodeficiency virus 1; test: Antiviral activity against VSV-G pseudotyped darunavir-resistant HIV1 NL4-3 harboring V32I, L33F,I54M and I84V mutant infected in human SUPT1 cells at 5 uM infected with supernatants from virus-infected human 293T cells after 48 hrs by luciferase assay relative to control; assay type: functional
[3] = tested on: Human immunodeficiency virus 1; test: Antiviral activity against VSV-G pseudotyped wild type HIV1 NL4-3 infected in human TZM-b1 cells at 5 uM infected with supernatants from virus-infected human SUPT1 cells after 48 hrs by luciferase assay relative to control; assay type: functional
[4] = tested on: Human immunodeficiency virus 1; test: Resistance index, ratio of antiviral activity against VSV-G pseudotyped wild type HIV1 NL4-3 infected in human TZM-b1 cells infected with supernatants from virus-infected human SUPT1 cells to antiviral activity against darunavir-resistant HIV1 NL4-3 infected in human SUPT1 cells infected with supernatants from virus-infected human 293T cells at 5 uM by luciferase assay; assay type: functional
[5] = tested on: Human immunodeficiency virus 1; test: Antiviral activity against VSV-G pseudotyped darunavir-resistant HIV1 NL4-3 V32I, L33F,I54M and I84V mutant infected in human SUPT1 cells at 100 nM infected with supernatants from virus-infected human 293T cells after 48 hrs by luciferase assay relative to control; assay type: functional
[6] = tested on: Human immunodeficiency virus 1; test: Antiviral activity against VSV-G pseudotyped wild type HIV1 NL4-3 infected in human TZM-b1 cells at 100 nM infected with supernatants from virus-infected human SUPT1 cells after 48 hrs by luciferase assay relative to control; assay type: functional

SMILES	IC50 [1] [µM]	further results
C[C@H](O)CN(C[C@@H](O)[C@H](Cc1ccccc1)NC(=O)c1cc(O)cc(O)c1)S(=O)(=O)c1ccc(C(F)(F)F)cc1	0.0272	
C[C@H](O)CN(C[C@@H](O)[C@H](Cc1ccccc1)NC(=O)c1ccccc1O)S(=O)(=O)c1ccc(C(F)(F)F)cc1	0.257	
COc1ccc(C(=O)N[C@@H](Cc2ccccc2)[C@H](O)CN(C[C@H](C)O)S(=O)(=O)c2ccc(C(F)(F)F)cc2)c(O)c1	0.187	
COc1ccc(C(=O)N[C@@H](Cc2ccccc2)[C@H](O)CN(C[C@H](C)O)S(=O)(=O)c2ccc([N+](=O)[O-])cc2)c(O)c1	0.505	
C[C@@H](O)CN(C[C@@H](O)[C@H](Cc1ccccc1)NC(=O)c1cc(O)cc(O)c1)S(=O)(=O)c1ccc([N+](=O)[O-])cc1	0.00483	inhibition (INH) [2]: 42%; inhibition (INH) [3]: 58%; Selectivity Index [4]: 1.38
COc1cc(C(=O)N[C@@H](Cc2ccccc2)[C@H](O)CN(C[C@@H](C)O)S(=O)(=O)c2ccc(C(F)(F)F)cc2)cc(OC)c1O	0.0118	
C[C@@H](O)CN(C[C@@H](O)[C@H](Cc1ccccc1)NC(=O)c1ccccc1O)S(=O)(=O)c1ccc(C(F)(F)F)cc1	0.0321	
C[C@H](O)CN(C[C@@H](O)[C@H](Cc1ccccc1)NC(=O)c1ccccc1O)S(=O)(=O)c1ccc([N+](=O)[O-])cc1	0.0782	
COc1cc(C(=O)N[C@@H](Cc2ccccc2)[C@H](O)CN(C[C@H](C)O)S(=O)(=O)c2ccc(C(F)(F)F)cc2)cc(OC)c1O	0.014	
C[C@@H](O)CN(C[C@@H](O)[C@H](Cc1ccccc1)NC(=O)c1cc(O)cc(O)c1)S(=O)(=O)c1ccc(C(F)(F)F)cc1	0.00233	inhibition (INH) [2]: 51%; inhibition (INH) [3]: 76%; Selectivity Index [4]: 1.49
C[C@H](O)CN(C[C@@H](O)[C@H](Cc1ccccc1)NC(=O)c1cc(O)cc(O)c1)S(=O)(=O)c1ccc([N+](=O)[O-])cc1	0.0374	
COc1cc(C(=O)N[C@@H](Cc2ccccc2)[C@H](O)CN(C[C@H](C)O)S(=O)(=O)c2ccc([N+](=O)[O-])cc2)cc(OC)c1O	0.0758	
COc1cc(O)c(C(=O)N[C@@H](Cc2ccccc2)[C@H](O)CN(C[C@H](C)O)S(=O)(=O)c2ccc(C(F)(F)F)cc2)cc1OC	0.284	
C[C@H](O)CN(C[C@@H](O)[C@H](Cc1ccccc1)NC(=O)c1ccc(O)cc1O)S(=O)(=O)c1ccc(C(F)(F)F)cc1	0.0406	
COc1ccc(C(=O)N[C@@H](Cc2ccccc2)[C@H](O)CN(C[C@@H](C)O)S(=O)(=O)c2ccc(C(F)(F)F)cc2)c(O)c1	0.427	
C[C@H](O)CN(C[C@@H](O)[C@H](Cc1ccccc1)NC(=O)c1ccc(O)cc1O)S(=O)(=O)c1ccc([N+](=O)[O-])cc1	0.0471	
C[C@H](O)CN(C[C@@H](O)[C@H](Cc1ccccc1)NC(=O)c1ccc(O)c(O)c1)S(=O)(=O)c1ccc([N+](=O)[O-])cc1	0.00656	
C[C@@H](O)CN(C[C@@H](O)[C@H](Cc1ccccc1)NC(=O)c1ccc(O)c(O)c1)S(=O)(=O)c1ccc([N+](=O)[O-])cc1	0.0103	
C[C@@H](O)CN(C[C@@H](O)[C@H](Cc1ccccc1)NC(=O)c1ccc(O)cc1O)S(=O)(=O)c1ccc([N+](=O)[O-])cc1	0.0134	
COc1cc(O)c(C(=O)N[C@@H](Cc2ccccc2)[C@H](O)CN(C[C@H](C)O)S(=O)(=O)c2ccc([N+](=O)[O-])cc2)cc1OC	1.31	
CC(C)CN(C[C@@H](O)[C@H](Cc1ccccc1)NC(=O)O[C@H]1CO[C@H]2OCC[C@H]21)S(=O)(=O)c1ccc(N)cc1		inhibition (INH) [5]: 59%; inhibition (INH) [6]: 95%
COc1cc(O)c(C(=O)N[C@@H](Cc2ccccc2)[C@H](O)CN(C[C@@H](C)O)S(=O)(=O)c2ccc(C(F)(F)F)cc2)cc1OC	0.0614	
C[C@@H](O)CN(C[C@@H](O)[C@H](Cc1ccccc1)NC(=O)c1ccccc1O)S(=O)(=O)c1ccc([N+](=O)[O-])cc1	0.009	
C[C@@H](O)CN(C[C@@H](O)[C@H](Cc1ccccc1)NC(=O)c1ccc(O)cc1O)S(=O)(=O)c1ccc(C(F)(F)F)cc1	0.0123	
C[C@H](O)CN(C[C@@H](O)[C@H](Cc1ccccc1)NC(=O)c1ccc(O)c(O)c1)S(=O)(=O)c1ccc(C(F)(F)F)cc1	0.00653	
C[C@@H](O)CN(C[C@@H](O)[C@H](Cc1ccccc1)NC(=O)c1ccc(O)c(O)c1)S(=O)(=O)c1ccc(C(F)(F)F)cc1	0.00164	inhibition (INH) [2]: 46%; inhibition (INH) [3]: 66%; Selectivity Index [4]: 1.43
COc1cc(O)c(C(=O)N[C@@H](Cc2ccccc2)[C@H](O)CN(C[C@@H](C)O)S(=O)(=O)c2ccc([N+](=O)[O-])cc2)cc1OC	0.102	
COc1ccc(C(=O)N[C@@H](Cc2ccccc2)[C@H](O)CN(C[C@@H](C)O)S(=O)(=O)c2ccc([N+](=O)[O-])cc2)c(O)c1	0.625	
COc1cc(C(=O)N[C@@H](Cc2ccccc2)[C@H](O)CN(C[C@@H](C)O)S(=O)(=O)c2ccc([N+](=O)[O-])cc2)cc(OC)c1O	0.0131	
